Data reported in patent US6517846B2, “Cosmetic composition” (Kyowa Hakko Kogyo Co., Ltd., priority 2000, dated 2003).
Structures can show the parent of a compound that is named as a salt. Where two headings read alike, the source gives them in different places.

Experiments:
[1] = test system: human skin (forearm crook, females with roughening skin); assay: Water content in skin after repeated cup treatment (Skicon-200); assay type: in vivo; settings: for Change of water content immediately before the treatment / Change of water content immediately after the second treatment: 5 w/v % solution; for Change of water content immediately before the treatment: twice a day; for water content in the skin, tendency in words: summary of Table 3
Procedure: A cup of 1-cm diameter was closely fixed to the skin of a forearm crook, and 0.5 ml of a solution containing 5 w/v % test compound was poured into the cup for treatment for 30 minutes. Then, the test site was washed with tepid water and wiped with a Kim wipe. The skin was acclimated under a constant environment at a temperature of 20° C. and a relative humidity of 50% for 20 minutes, and then, the water content in skin was measured using Skicon-200 (supplied by IBS Corporation). The treatment was repeated twice a day and continued for 4 days to determine the change of the water content in skin. The water content in each site to be treated before the treatment on day 0 was defined as 100%, and the water content in each site treated with the test compound immediately before and after the treatment (after the second treatment) on each day was determined as a relative value (%).

[2] = test system: human normal keratinocytes; assay: Cytotoxicity in human normal keratinocytes, neutral red (NR) method; assay type: cell-based; settings: 48 hours incubation, 1 to 10,000 ppm, pH 7, mean n = 4
Procedure: (2) Neutral red (NR) method:
NR penetrates plasma membranes and is concentrated in lysosomes in normal cells, but is not capable of being incorporated into cells with surface damages. Thus, the NR method is a method where the number of living cells is evaluated by determining the amount of NR incorporated in living cells (the absorbance at a wavelength of 540 nm was measured), and was carried out according to the NR bioassay data book of Sanko Pure Chemicals.
(§1) (4) Using the above three methods for the evaluation of suppression of cytotoxicity, suppressive effects of the test compounds on cytotoxicity were determined as follows.

[3] = test system: human normal keratinocytes; assay: Cytotoxicity in human normal keratinocytes, MTT method; assay type: cell-based; settings: 48 hours incubation, 1 to 10,000 ppm, pH 7, mean n = 4
Procedure: (1) A method using 3-(4,5-dimethylthiazol-2-yl)-2,5-diphenyl tetrazolium bromide (MTT method):
This is a method where the number of living cells is evaluated by determining enzyme activity related to respiratory chain present in inner membranes of mitochondria in living cells. The amount of MTT formazan produced after incorporation of MTT into cells was determined by colorimetric quantification at a wavelength of 570 nm (reference: 650 nm). [See Sugawara, et al., “Saibou Baiyou (Cell Culture) III”, 4477-4482 (1984); J. Soc. Cosmet. Chem. Jpn., 27, 498-505 (1993)].
as §1

[4] = test system: IL-1α; settings: mean n = 2
Procedure: The determination of IL-1α was carried out using an IL-1α human ELISA system supplied by Amarsham.
The cells were seeded in a 25 cm^2-flask coated with collagen and cultured at 37° C. under 5% of CO2 for 6 days.
One day after the seeding, the test compounds prepared at given concentrations (1 to 10,000 ppm, pH 7) were each added to the culture and continuously incubated for 48 hours.
Also, the release of IL-1α from the cultured cells was determined by calculating IL-1α concentration in the culture media with a lapse of time.

[5] = test system: human skin (forearm crook, females with roughening skin)
Procedure: A cup of 1-cm diameter was closely fixed to the skin of a forearm crook, and 0.5 ml of a solution containing 5 w/v % test compound was poured into the cup for treatment for 30 minutes. Then, the test site was washed with tepid water and wiped with a Kim wipe.
On the next day of that when the above treatment was completed, transpiration rates of water at the treated sites were measured using a TEWA meter (TM210, supplied by Nippon Eurotech Co., Ltd.)

[6] = test system: human subjects (washing hands); settings: grades scored; 1 Very irritative, 5 Very mild; mean n = 5
Procedure: The test compounds were evaluated using the following five grades. The intermediate grade between 1 and 3 was made 2, and that between 3 and 5 was made 4. Each grade 1, 2, 3, 4, 5 was scored as −5, −1.5, 0, 1.5, and 5, respectively, and the average of the scores was calculated for each evaluation item.

[7] = test system: human skin (forearm crook, females with roughening skin); settings: 78 hours after the first treatment on day 1, 5 w/v % solution
[8] = Day 1 (0 hr.), baseline defined as 100%, 30 min
[9] = Day 1 (6 hr.), relative to pre-treatment = 100%
[10] = Day 2 (24 hr.), relative to pre-treatment = 100%
[11] = Day 2 (30 hr.), relative to pre-treatment = 100%
[12] = Day 3 (48 hr.), relative to pre-treatment = 100%
[13] = Day 3 (54 hr.), relative to pre-treatment = 100%
[14] = Day 4 (72 hr.), relative to pre-treatment = 100%
[15] = Day 4 (78 hr.), relative to pre-treatment = 100%

Row | Compound | Change of water content immediately before the treatment [1, 8] | Change of water content immediately after the second treatment [1, 9] | Change of water content immediately before the treatment [1, 10] | Change of water content immediately after the second treatment [1, 11] | Change of water content immediately before the treatment [1, 12] | Change of water content immediately after the second treatment [1, 13] | Change of water content immediately before the treatment [1, 14] | Change of water content immediately after the second treatment [1, 15] | water content in the skin, tendency in words [1] | NR, IC50 [2] | MTT, IC50 [3] | Irritation (after use), average score [6] | Desquamation [7] | Erythema [7] | other results
1 | Triethanolamine N-Cocoyl-L-glutaminate [GMT] | 100% | 124% | 135% | 126% | 168% | 128% | 140% | 120% | tendency to increase with a lapse of time | 53 ppm | 70 ppm | – | – | – | –
2 | triethanolamine N-cocoyl glutamate [GAT] | 100% | 88% | 97% | 76% | 111% | 78% | 80% | 73% | tendency to decrease immediately after the treatment | 48 ppm | 60 ppm | 1.2 | Somewhat aggravated | None | IL-1α ([4]; 10 ppm test compound): 172.16 pg/well; IL-1α ([4]; 30 ppm test compound): 216.18 pg/well; IL-1α ([4]; 60 ppm test compound): 333.05 pg/well; IL-1α ([4]; 100 ppm test compound): 313.78 pg/well; IL-1α ([4]; 300 ppm test compound): 269.13 pg/well; Relative water transpiration rates ([5]; next day after the 4-day treatment, Control = 100, mean n = 4): 138%; Desquamation ([7]; listed as N-cocoyl-L-glutamate): much desquamation
3 | CCCCCCCCCCCC(=O)NCCC(=O)O [LBA, sodium salt of lauroyl β-alanine] | 100% | 113% | 88% | 82% | 104% | 104% | 93% | 101% | no effect on the water content was observed | 33 ppm | 35 ppm | 1.5 | A little | None | water transpiration rate, in words ([5]; summary of Table 5): lowest; Desquamation ([7]; listed as lauroyl β-alanine): lowest
